For test [1], the target named is T1, human recombinant SSAO/VAP-1 (Homo sapiens, UniProt Q16853).
T1 construct: a cloned cDNA template corresponding to residues 34-763 of human SSAO/VAP-1; TEV cleavage site (N); made in house
T1 sequence (Q16853 34-763): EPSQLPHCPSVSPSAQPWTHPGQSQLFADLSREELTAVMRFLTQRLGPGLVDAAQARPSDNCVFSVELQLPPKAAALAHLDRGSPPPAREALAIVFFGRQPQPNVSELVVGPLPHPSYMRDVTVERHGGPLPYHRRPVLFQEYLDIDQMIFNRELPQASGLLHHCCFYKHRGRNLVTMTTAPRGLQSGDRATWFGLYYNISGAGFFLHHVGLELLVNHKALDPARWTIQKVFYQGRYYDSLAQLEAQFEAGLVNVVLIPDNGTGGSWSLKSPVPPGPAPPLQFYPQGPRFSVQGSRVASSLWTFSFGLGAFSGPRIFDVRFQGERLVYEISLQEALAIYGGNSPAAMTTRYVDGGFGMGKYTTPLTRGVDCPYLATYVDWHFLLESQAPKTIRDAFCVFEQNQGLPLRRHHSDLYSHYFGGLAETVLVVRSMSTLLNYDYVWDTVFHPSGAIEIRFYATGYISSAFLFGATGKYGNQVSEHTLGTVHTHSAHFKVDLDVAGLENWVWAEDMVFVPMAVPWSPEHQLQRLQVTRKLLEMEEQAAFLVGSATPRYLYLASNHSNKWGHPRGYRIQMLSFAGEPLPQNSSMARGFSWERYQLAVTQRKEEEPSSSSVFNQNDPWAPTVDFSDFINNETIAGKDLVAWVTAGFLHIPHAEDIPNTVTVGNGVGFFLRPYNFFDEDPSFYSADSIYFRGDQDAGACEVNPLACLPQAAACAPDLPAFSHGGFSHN
Put plainly: Human recombinant SSAO/VAP-1 amine oxidase inhibition. The test is classed as biochemical. To be noted: 30 min preincubation at 37° C., 600 μM benzylamine. On the procedure: Method to Determine the Ability of Compounds of Formula I to Inhibit Human Recombinant SSAO/VAP-1
Human recombinant SSAO/VAP-1 amine oxidase activity was determined using the coupled colorimetric method as described for monoamine oxidase, copper-containing amine oxidases and related enzymes (Holt A. and Palcic M., A peroxidase-coupled continuous absorbance plate-reader assay for flavin monoamine oxidases, copper-containing amine oxidases and related enzymes. Nat Protoc 2006; 1: 2498-2505). Briefly, a cloned cDNA template corresponding to residues 34-763 of human SSAO/VAP-1, and incorporating a mouse Ig kappa (κ) signal sequence, N-terminal flag epitope tag and tobacco etch virus (TEV) cleavage site, was assembled in a mammalian expression vector (pLO-CMV) by Geneart AG. This vector containing human SSAO/VAP-1 residues was transfected into CHO-K1 glycosylation mutant cell line, Lec 8. A clone stably expressing human SSAO/VAP-1 was isolated and cultured in large scale. Active human SSAO/VAP-I was purified and recovered using immunoaffinity chromatography. This was used as the source for SSAO/VAP-1 activity. A high-throughput colorimetric assay was developed using either 96 or 384 well format. Briefly, in a standard 96 well plate assay 50 μL of purified human SSAO/VAP-1 (0.25 μg/mL) in 0.1 M sodium phosphate buffer (pH 7.4) was added into each well. Test compounds were dissolved in DMSO and tested in a Concentration Response Curve (CRC) with 4-11 data points, typically in the micromolar or nanomolar range after incubation with human SSAO/VAP-1 for 30 min at 37° C. After 30 min incubation, 50 μL of the reaction mixture containing 600 μM benzylamine (Sigma Aldrich), 120 μM Amplex Red (Sigma Aldrich) and 1.5 U/mL horseradish peroxidase (Sigma Aldrich) prepared in 0.1 M sodium phosphate buffer (pH 7.4) were added to the corresponding well. The fluorescence unit (RFU) was read every 2.5 min for 30 min at 37° C. excitation 565 nm and emission 590 (Optima; BMG labtech). The slope of the kinetics for each well was calculated using MARS data analysis software (BMG labtech) and this value was used to deduce the IC50 value (Dotmatics).

For test [2], the target named is T2, Bovine LOX (Bos taurus, UniProt P33072).
T2 sequence (P33072 170-418): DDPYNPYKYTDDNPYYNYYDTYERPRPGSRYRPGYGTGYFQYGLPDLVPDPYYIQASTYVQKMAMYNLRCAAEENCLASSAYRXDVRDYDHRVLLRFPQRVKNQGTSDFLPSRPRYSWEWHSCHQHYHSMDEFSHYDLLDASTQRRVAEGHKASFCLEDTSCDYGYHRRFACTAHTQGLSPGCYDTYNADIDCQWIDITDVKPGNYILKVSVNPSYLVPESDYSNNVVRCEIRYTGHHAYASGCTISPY
The test is described as follows: LOX amine oxidase inhibition, peroxidase-coupled Amplex Red assay. Format: biochemical. To be noted: 30 min preincubation at 37° C., putrescine substrate. The gist of the method: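 Bovine LOX in 1.2 M urea, 50 mM sodium borate pH 8.2 […]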

Counter-ions that a name gives are not always drawn. A value given as a limit tells only on which side of the number the result lay.

For orientation: IC50 means the concentration needed to halve the response being measured. Turning to `Cc1nn(C/C(F)=C/CN)c(C)c1Cc1ccc(S(=O)(=O)N(C)C)c2ccccc12` [Compound 9, (Z)-4-((1-(4-amino-2-fluorobut-2-en-1-yl)-3,5-dimethyl-1H-pyrazol-4-yl)methyl)-N,N-dimethyl naphthalene-1-sulfonamide hydrochloride], the IC50 was over 10 µM in test [1] and under 10 µM in test [2].

Consider `Cc1nn(Cc2ccc(S(=O)(=O)N(C)C)cc2)c(C)c1C/C(F)=C/CN` [Compound 10, (Z)-4-((4-(4-amino-2-fluorobut-2-en-1-yl)-3,5-dimethyl-1H-pyrazol-1-yl)methyl)-N,N-dimethylbenzenesulfonamide hydrochloride], for which the half-inhibitory concentration (IC50) in test [1] and in test [2] was under 10 µM in each case.

Take `Cc1nn(C/C(F)=C/CN)c(C)c1Cc1ccc(S(=O)(=O)NC(C)C)cc1` [Compound 11, (Z)-4-((1-(4-amino-2-fluorobut-2-en-1-yl)-3,5-dimethyl-1H-pyrazol-4-yl)methyl)-N-isopropyl benzenesulfonamide hydrochloride]: the half-maximal inhibitory concentration (IC50) in test [1] and in test [2] was under 10 µM in each case.

Regarding `Cc1nn(C/C(F)=C/CN)c(C)c1Cc1ccc(S(C)(=O)=O)cc1Cl` [Compound 12, (Z)-4-(4-(2-chloro-4-(methylsulfonyl)benzyl)-3,5-dimethyl-1H-pyrazol-1-yl)-3-fluorobut-2-en-1-amine hydrochloride], the 50% inhibitory concentration (IC50) in test [1] and in test [2] was under 10 µM in each case.

As to `CCc1nn(C/C(F)=C/CN)c(CC)c1Cc1ccc(S(=O)(=O)N(C)C)cc1` [Compound 13, (Z)-4-((1-(4-amino-2-fluorobut-2-en-1-yl)-3,5-diethyl-1H-pyrazol-4-yl)methyl)-N,N-dimethyl benzenesulfonamide hydrochloride], the values for the half-inhibitory concentration (IC50) in test [1] and in test [2] were over 30 µM and under 10 µM, respectively.

`Cc1nn(C/C(F)=C/CN)c(C)c1Cc1ccc(C(=O)N(C)C)cc1` [Compound 14, (Z)-4-((1-(4-amino-2-fluorobut-2-en-1-yl)-3,5-dimethyl-1H-pyrazol-4-yl)methyl)-N,N-dimethylbenzamide hydrochloride]: the IC50 in test [1] is over 30 µM; in test [2], under 10 µM.

For `Cc1nn(C/C(F)=C/CN)c(C)c1Cc1ccc(S(=O)(=O)N(C)C)c(Cl)c1` [Compound 15, (Z)-4-((1-(4-amino-2-fluorobut-2-en-1-yl)-3,5-dimethyl-1H-pyrazol-4-yl)methyl)-2-chloro-N,N-dimethylbenzenesulfonamide hydrochloride], the half-maximal inhibitory concentration (IC50) in test [1] and in test [2] was under 10 µM in each case.

Turning to `Cc1nn(C/C(F)=C/CN)c(C)c1Cc1ccc(S(C)(=O)=O)c(Cl)c1` [Compound 16, (Z)-4-(4-(3-chloro-4-(methylsulfonyl)benzyl)-3,5-dimethyl-1H-pyrazol-1-yl)-3-fluorobut-2-en-1-amine hydrochloride], the half-maximal inhibitory concentration (IC50) is over 10 µM in test [1] and under 10 µM in test [2].

As for `Cc1nn(C/C(F)=C/CN)c(C)c1Cc1ccc(S(=O)(=O)N(C)C)c(OC(F)(F)F)c1` [Compound 17, (Z)-4-((1-(4-amino-2-fluorobut-2-en-1-yl)-3,5-dimethyl-1H-pyrazol-4-yl)methyl)-N,N-dimethyl-2-(trifluoromethoxy)benzenesulfonamide hydrochloride], the half-maximal inhibitory concentration (IC50) in test [1] and in test [2] was over 10 µM throughout.

Regarding `Cc1nn(C/C(F)=C/CN)c(C)c1Cc1ccc(S(=O)(=O)N(C)C)c(C(F)(F)F)c1` [Compound 18, (Z)-4-((1-(4-amino-2-fluorobut-2-en-1-yl)-3,5-dimethyl-1H-pyrazol-4-yl)methyl)-N,N-dimethyl-2-(trifluoromethyl)benzenesulfonamide hydrochloride], the half-maximal inhibitory concentration (IC50) in test [1] was over 30 µM; in test [2], under 10 µM.

Take `Cc1nn(C/C(F)=C/CN)c(C)c1Cc1cc(F)c(S(=O)(=O)N(C)C)cc1F` [Compound 19, (Z)-4-((1-(4-amino-2-fluorobut-2-en-1-yl)-3,5-dimethyl-1H-pyrazol-4-yl)methyl)-2,5-difluoro-N,N-dimethylbenzenesulfonamide hydrochloride]: the IC50 in test [1] was over 30 µM; in test [2], under 10 µM.

With `CNS(=O)(=O)c1ccc(Cn2nc(C)c(C/C(F)=C/CN)c2C)c(Cl)c1` [Compound 20, (Z)-4-((4-(4-amino-2-fluorobut-2-en-1-yl)-3,5-dimethyl-1H-pyrazol-1-yl)methyl)-3-chloro-N-methylbenzenesulfonamide hydrochloride], the 50% inhibitory concentration (IC50) in test [1] and in test [2] was under 10 µM in each case.

Take `Cc1nn(Cc2ccc(S(C)(=O)=O)cc2Cl)c(C)c1C/C(F)=C/CN` [Compound 21, (Z)-4-(1-(2-chloro-4-(methylsulfonyl)benzyl)-3,5-dimethyl-1H-pyrazol-4-yl)-3-fluorobut-2-en-1-amine hydrochloride]: the IC50 in test [1] and in test [2] was under 10 µM each time.

Regarding `CNS(=O)(=O)c1ccc(Cn2nc(C)c(C/C(F)=C/CN)c2C)cc1Cl` [Compound 22, (Z)-4-((4-(4-amino-2-fluorobut-2-en-1-yl)-3,5-dimethyl-1H-pyrazol-1-yl)methyl)-2-chloro-N-methylbenzenesulfonamide hydrochloride], the IC50 is over 10 µM in test [1] and under 10 µM in test [2].

For `CNS(=O)(=O)c1ccc(Cn2nc(C)c(C/C(F)=C/CN)c2C)c(C(F)(F)F)c1` [Compound 23, (Z)-4-((4-(4-amino-2-fluorobut-2-en-1-yl)-3,5-dimethyl-1H-pyrazol-1-yl)methyl)-N-methyl-3-(trifluoromethyl)benzenesulfonamide hydrochloride], the concentration for half-maximal inhibition (IC50) in test [1] was over 30 µM; in test [2], under 10 µM.

On to `Cc1nn(Cc2ccc(S(C)(=O)=O)c(Cl)c2)c(C)c1C/C(F)=C/CN` [Compound 24, (Z)-4-(1-(3-chloro-4-(methylsulfonyl)benzyl)-3,5-dimethyl-1H-pyrazol-4-yl)-3-fluorobut-2-en-1-amine hydrochloride], for which the concentration for half-maximal inhibition (IC50) was over 30 µM in test [1] and under 10 µM in test [2].

For `Cc1nn(Cc2cc(F)c(S(=O)(=O)N(C)C)cc2F)c(C)c1C/C(F)=C/CN` [Compound 25, (Z)-4-((4-(4-amino-2-fluorobut-2-en-1-yl)-3,5-dimethyl-1H-pyrazol-1-yl)methyl)-2,5-difluoro-N,N-dimethylbenzenesulfonamide hydrochloride], the IC50 in test [1] is over 30 µM; in test [2], under 10 µM.

For `CNS(=O)(=O)c1cc(F)c(Cn2nc(C)c(C/C(F)=C/CN)c2C)cc1F` [Compound 26, (Z)-4-((4-(4-amino-2-fluorobut-2-en-1-yl)-3,5-dimethyl-1H-pyrazol-1-yl)methyl)-2,5-difluoro-N-methylbenzenesulfonamide hydrochloride], the half-maximal inhibitory concentration (IC50) in test [1] and in test [2] was under 10 µM each time.

As for `CCOC(=O)c1c(Cc2ccc(S(=O)(=O)N(C)C)cc2)c(C)nn1C/C(F)=C/CN` [Compound 27, (Z)-ethyl 1-(4-amino-2-fluorobut-2-enyl)-4-(4-(N,N-dimethylsulfamoyl)benzyl)-3-methyl-1H-pyrazole-5-carboxylate hydrochloride], the figures for the IC50 in test [1] and in test [2] were over 30 µM and under 10 µM, respectively.

These data come from patent US20200069648A1, “HALOALLYLAMINE PYRAZOLE DERIVATIVE INHIBITORS OF LYSYL OXIDASES AND USES THEREOF” (Pharmaxis Ltd., priority 2017, published 2020).
